Assay results reported in US8314123B2, “5, 6, or 7-substituted -3-(hetero) arylisoquinolinamine derivatives and therapeutic use thereof” (Rexahn Pharmaceuticals, Inc., priority 2006, dated 2012).
Where two headings read alike, the source gives them in different places.

Columns and labels:
[1] = system: PC3 (prostate); assay: In vitro cell proliferation assay (SRB), PC3; assay type: cell-based; settings: Homo sapiens; SRB method, 96 hours; read-out: Inhibition of cell growth (IC50, μM) PC3
Method: (§1) Cancer cell lines to determine the effect of 5, 6, or 7-substituted-3-(hetero)arylisoquinolinamine compounds were obtained from the following sources: Human MDA-MB-231 (breast), PC3 (prostate), HCT-15 (colon), HCT116 (colon), OVCAR-3 (ovary), Caki-1 (kidney), PANC-1 (pancreas), SNB-19 (glioblastoma) and SK-MEL-28 (melanoma) from the American Type Culture Collection (ATCC) (Manassas, Va.). PC3, OVCAR-3, SK-MEL-28 and SNB-19 were grown in RPMI1640 medium (Invitrogen, Carlsbad, Calif.) supplemented with 10% fetal bovine serum (“FBS”), 1 mM sodium pyruvate, 10 mM HEPES and 100 U/ml penicillin and 100 μg/ml streptomycin (“P/S”). MDA-MB-231, Caki-1, HCT-15 (colon) and PANC-1 cells were maintained in Dulbecco's modified Eagle's medium (“DMEM”, Invitrogen) supplemented with 10% FBS, P/S and 10 mM HEPES. HCT116 cells were maintained in DMEM supplemented with 10% FBS, P/S and 10 mM HEPES for in vitro cell proliferation assay and in RPMI1640 medium supplemented with 10% FBS, 1 mM sodium pyruvate, 10 mM HEPES and P/S for in vitro cell cycle analysis. All cells were incubated at 37° C. under humidified 5% CO2.
(§2) The growth inhibition of the 5, 6, or 7-substituted-3-(hetero)arylisoquinolinamine derivatives against a variety of human tumor cells was evaluated to study the relative importance of particular substituent groups on the compounds. The 5, 6, or 7-substituted-3-(hetero)arylisoquinolinamine derivatives, prepared as described above, were tested with DMSO as a control.
(§3) The growth inhibition assay of representative 5, 6, or 7-substituted-3-(hetero)arylisoquinolinamine derivatives against human tumor cell lines was performed using the Sulforhodamine B (“SRB”) method (Skehan et al., J. National Cancer Institute, 82: 1107-1112 (1990)). Briefly, exponentially growing tumor cells were seeded into a 96-well plate at a density of 2-3×10^3 cells/well and treated with 5, 6, or 7-substituted-3-(hetero)arylisoquinolinamine compounds the next day. Triplicate wells were used for each treatment. The cells were incubated with the various compounds for 96 hours at 37° C. in a humidified 5% CO2 atmosphere. After 96-hour incubation, cells were fixed with 10% trichloroacetic acid (“TCA”), incubated for 1 hour at 4° C., and washed 3 times with tap water. Subsequently, cells were stained with 0.4% sulforhodamine B in 1% acetic acid for 30 minutes, washed 4 times with 1% acetic acid, and air-dried again. After 5 minutes agitation in 10 mM Tris solution, the absorbance of each well was measured at 530 nm using Benchmark Plus Microplate reader (Bio-Rad Laboratories, Hercules, Calif.).
(§4) To translate the OD530 values into the number of live cells in each well, the OD530 values were compared to those on standard OD530-versus-cell number curves generated for each cell line. The percent survival was calculated using the formula: % Survival=live cell number [test]/live cell number [control]×100
(§5) The IC50 values were calculated by non-linear regression analysis.

[2] = system: PANC-1 (pancreas); assay: In vitro cell proliferation assay (SRB), PANC-1; assay type: cell-based; settings: Homo sapiens, SRB method, 96 hours, read-out: Inhibition of cell growth (IC50, μM) PANC-1
Method: as §1, §2, §3, §4, §5

[3] = system: SK-MEL-28 (melanoma); assay: In vitro cell proliferation assay (SRB), SK-MEL-28; assay type: cell-based; settings: Homo sapiens, SRB method, 96 hours, read-out: Inhibition of cell growth (IC50, μM) SK-MEL-28
Method: as §1, §2, §3, §4, §5

[4] = system: SNB-19 (glioblastoma); assay: In vitro cell proliferation assay (SRB), SNB19; assay type: cell-based; settings: Homo sapiens, SRB method, 96 hours, read-out: Inhibition of cell growth (IC50, μM) SNB19
Method: as §1, §2, §3, §4, §5

[5] = system: MDA-MB-231 (breast); assay: In vitro cell proliferation assay (SRB), MDA-MB-231; assay type: cell-based; settings: Homo sapiens, SRB method, 96 hours, read-out: Inhibition of cell growth (IC50, μM) MDA-MB-231
Method: as §1, §2, §3, §4, §5

[6] = system: HCT116 cells; assay: In vitro cell cycle analysis (PI staining); assay type: cell-based, Human; settings: HCT116, 0.3 uM, 12 hours
Method: as §1
This assay was used to determine the ability of 5, 6, or 7-substituted-3-(hetero)arylisoquinolinamine compounds to arrest cells at a specific phase during cell cycle. The day before drug treatment, HCT116 cells were plated at 50-70% saturation in a 10 cm dish in RPMI1640 medium with 10% FBS and then incubated overnight in a humidified 37° C. incubator with 5% CO2. The following day RPMI1640 medium (with 10% FBS) carrying the appropriate concentration of test compound solubilized in DMSO was added to the dishes. No compound control treatment was also included (0.25% DMSO). The cells were then incubated for 12 hours and were harvested by centrifugation at 7,000 rpm for 5 minutes. Cell pellets were resuspended in 0.2 ml of PBS containing 0.1% glucose and 2% FBS. Subsequently, 5 ml ice-cold 70% ethanol was added dropwise with shaking and the treated cells were stored at −20° C. at least 30 minutes. Cells were centrifuged at 2,000 rpm for 5 minutes and washed once with 1 ml PBS with 0.1% glucose and 2% FBS. After removal of the supernatant, cells were resuspended in 0.5 ml of 70 μM propium iodide (PI) solution containing 0.1% Triton X-100, 40 mM sodium citrate, pH 7.4. RNase was added at 50 μg/ml final concentration and cells were incubated at 37° C. for 30 minutes. PI stained cells were analyzed by Guava PCA-AFP instrument using its cell cycle software program (Guava Technologies, Hayward, Calif.) and expressed as percentage of cells in G1, S and G2/M phases of the cell cycle.

[7] = system: HCT116 (colon); assay: In vitro cell proliferation assay (SRB), HCT116; assay type: cell-based; settings: Homo sapiens, HCT-116
Method: as §1, §2, §3, §4, §5

[8] = system: human cancer cell lines; assay: Growth inhibition against the panel of human tumor cell lines (SRB), overall statements; assay type: cell-based; settings: Table 3 cell lines
Method: as §1, §2, §3, §4, §5
Using QSAR and medicinal chemistry techniques, a large number of compounds, including the compounds shown in Table 1-2 above, were synthesized. The synthesized compounds were screened against at least four cancer cell lines, PANC-1, MDA-MB-231, HCT116 and Caki-1, at approximately 1 μM concentration. Compounds showing activity in at least one of these cell lines were selected for further screening. From these compounds, thirty compounds were selected for further evaluation as broad-spectrum anti-proliferative agents as shown in the following Table 3.

[9] = system: OVCAR-3 (ovary); assay: In vitro cell proliferation assay (SRB), OVCAR3; assay type: cell-based; settings: Homo sapiens, SRB method, 96 hours, read-out: Inhibition of cell growth (IC50, μM) OVCAR3
Method: as §1, §2, §3, §4, §5

[10] = system: paclitaxel-resistant HCT-15 colorectal cancer cells; assay: In vitro antitumor effects against paclitaxel-resistant HCT-15 cells; assay type: cell-based, Human; settings: for IC50: Homo sapiens, paclitaxel-resistant HCT-15, Table 5, read-out: Inhibition of cell growth, IC50 (μM) HCT-15; for antitumor activity compared with paclitaxel: paclitaxel-resistant HCT-15 colorectal cancer cells
Method: as §1, §3, §4, §5
Compound 13 and 14 were tested in colon cancer cells and their antitumor activities were compared with paclitaxel (Taxol®).

[11] = system: Caki-1 (kidney); assay: In vitro cell proliferation assay (SRB), Caki-1; assay type: cell-based; settings: Homo sapiens, SRB method, 96 hours, read-out: Inhibition of cell growth (IC50, μM) Caki-1
Method: as §1, §2, §3, §4, §5

[12] = system: HCT15 human colon carcinoma xenografts; assay: Ex vivo xenograft study of nude mice; assay type: in vivo; settings: 10 mg/kg/day intraperitoneal, three times per week; for % Inhibition of HCT-15 human colorectal cancer in mice at 29 days: day 10 to day 29, nude mice
Method: In order to observe the inhibition of growth of tumor in an animal model, an ex vivo xenograft study of nude mice was conducted utilizing Compound 13. Paclitaxel-resistant HCT15 cell suspension (1×10^6 cells in 0.2 ml of RPMI) was injected subcutaneously into the right flank of six-week-old female athymic mice (BALB/c nu/nu) on day 0. A sufficient number of mice were injected with HCT15 cell suspension so that tumors in a volume range as narrow as possible were selected for the trial on the day of treatment initiation. Animals with tumors in the proper size range were assigned to various treatment groups. Palcitaxel was used as a positive control. Compound 13 and paclitaxel were dissolved in 5 Cremophor and 5% ethanol in PBS and solvent alone served as vehicle control. All study medications (vehicle control, paclitaxel: 10 mg/kg/day, Compound 13: 10 mg/kg/day) were given by intraperitoneal injections three times per week starting from day 10 and ending on day 29 after inoculation of HCT15 cells. To quantify tumor growth, three perpendicular diameters of the tumors were measured with calipers every 3-5 days, and the body weight of the mice was monitored for toxicity. The tumor volume was calculated using the formula: tumor volume (mm^3)=(width)×(length)×(height)×π/6.

[13] = SRB method, 96 hours, Table 3, read-out: Inhibition of cell growth (IC50, μM) HCT116
[14] = Table 5, read-out: Inhibition of cell growth, IC50 (μM) HCT116

IC50 [1] [µM] | IC50 [2] [µM] | IC50 [3] [µM] | IC50 [4] [µM] | IC50 [5] [µM] | IC50 [7, 13] [µM] | IC50 [9] [µM] | Compound | IC50 [7, 14] [µM] | activity in growth inhibition of human cancer cell compared to Compound 23 [8] | times more active than compound 23 in tested cell lines [8] | IC50 [10] [µM] | antitumor activity compared with paclitaxel [10] | IC50 [11] [µM] | % Inhibition of HCT-15 human colorectal cancer in mice at 29 days [12] [%] | further results
0.024 | 0.018 | 0.032 | 0.028 | 0.021 | 0.023 | 0.016 | Cc1cccc(-c2cc3ccc(N(C)C)cc3c(N)n2)c1.Cl [Compound 14, N^7,N^7-Dimethyl-3-m-tolylisoquinoline-1,7-diamine hydrochloride] | 0.023 | equal or better activity | five to thirteen times more active | 0.021 | higher antitumor activities than that of paclitaxel | 0.023 | – | % Cells in S ([6]; DMSO control 20.5): 7.6%; % Cells in G1 ([6]; DMSO control 39.4): 10.3%; % Cells in G2/M ([6]; DMSO control 40.1): 82.1%
– | – | – | – | – | – | – | CC(=O)O[C@H]1C(=O)[C@@]2(C)[C@H]([C@H](OC(=O)c3ccccc3)[C@]3(O)C[C@H](OC(=O)[C@H](O)[C@@H](NC(=O)c4ccccc4)c4ccccc4)C(C)=C1C3(C)C)[C@]1(OC(C)=O)CO[C@@H]1C[C@@H]2O [Paclitaxel, paclitaxel, reference compound] | 0.002 | – | – | 0.14 | – | – | 48.8 | loss of activity in HCT-15 cells when IC50 values compared in both colon cancer cells ([10]; HCT-15 versus HCT116): 70 fold
0.24 | 0.24 | 0.35 | 0.26 | 0.15 | 0.19 | 0.15 | Cc1ccc2c(N)nc(-c3ccccc3C)cc2c1.Cl [Compound 23, 6-Methyl-3-o-tolylisoquinolin-1-amine hydrochloride salt] | – | – | – | – | – | 0.12 | – | melting point: 269.1 to 270.2 °C

Compound | IC50 [1] [µM] | IC50 [2] [µM] | IC50 [3] [µM] | IC50 [4] [µM] | IC50 [5] [µM] | IC50 [7, 13] [µM] | IC50 [9] [µM] | IC50 [7, 14] [µM] | activity in growth inhibition of human cancer cell compared to Compound 23 [8] | times more active than compound 23 in tested cell lines [8] | IC50 [10] [µM] | antitumor activity compared with paclitaxel [10] | IC50 [11] [µM] | % Inhibition of HCT-15 human colorectal cancer in mice at 29 days [12] [%] | further results
COc1cccc(-c2cc3ccc(N(C)C)cc3c(N)n2)c1.Cl [Compound 13, 3-(3-methoxyphenyl)-N^7,N^7-dimethylisoquinoline-1,7-diamine hydrochloride] | 0.019 | 0.019 | 0.032 | 0.032 | 0.021 | 0.017 | 0.014 | 0.017 | equal or better activity | five to thirteen times more active | 0.015 | higher antitumor activities than that of paclitaxel | 0.022 | 69.2 | Tolerability of treatment ([12]; nude mice): well tolerated without deaths; body weight fluctuations ([12]; nude mice): no more than 1 g
